Experimental data taken from ChEMBL document CHEMBL4145602, “Cyclic Peptidic Mimetics of Apollo Peptides Targeting Telomeric Repeat Binding Factor 2 (TRF2) and Apollo Interaction” (ACS Med Chem Lett, 2018).
Square brackets hold non-standard residues; d marks the D form. Peptide text beside a SMILES is read from it. Gly(cPent) = N[C@H](C(=O)O)C1CCCC1; tBuAla = CC(C)(C)C[C@H](N)C(=O)O

Biological target: T1, Telomeric repeat-binding factor 2 (Homo sapiens, UniProt Q15554)
T1 sequence (Q15554 whole entry): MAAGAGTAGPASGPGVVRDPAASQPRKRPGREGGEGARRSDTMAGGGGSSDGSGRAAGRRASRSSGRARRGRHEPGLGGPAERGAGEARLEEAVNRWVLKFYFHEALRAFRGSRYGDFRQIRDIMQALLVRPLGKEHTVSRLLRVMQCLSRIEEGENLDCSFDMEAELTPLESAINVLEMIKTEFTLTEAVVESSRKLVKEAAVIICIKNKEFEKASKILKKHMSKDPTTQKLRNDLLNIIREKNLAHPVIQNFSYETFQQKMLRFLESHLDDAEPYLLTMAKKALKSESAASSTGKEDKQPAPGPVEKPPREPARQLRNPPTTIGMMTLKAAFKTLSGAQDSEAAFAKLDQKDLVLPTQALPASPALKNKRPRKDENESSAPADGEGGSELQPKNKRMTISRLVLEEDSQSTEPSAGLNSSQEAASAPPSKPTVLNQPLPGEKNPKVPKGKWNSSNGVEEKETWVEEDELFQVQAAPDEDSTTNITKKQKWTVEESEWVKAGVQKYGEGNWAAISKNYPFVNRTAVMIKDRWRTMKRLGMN
Experiment: Displacement of 5-((2R,6S,9S,12S,15S,18S,21S,24S)-3-((S)-2-((S)-1-amino-3-methyl-1-oxobutan-2-ylcarbamoyl)pyrrolidine-1-carbonyl)-15-(4-aminobutyl)-2-hydroxy-12-(4-hydroxybenzyl)-6,9,18,24-tetraisobutyl-21-methyl-5,8,11,14,17,20,23,26,29-nonaoxo-4,7,10,13,16,19,22,25,28-nonaazatetratriacontan-34-ylcarbamoyl)-2-(6-hydroxy-3-oxo-3H-xanthen-9-yl)benzoic acid from TRF2 TRFH domain (unknown origin) after 30 mins by fluorescence polarization assay

| Compound | Ki [µM] |
| --- | --- |
| CC(C)C[C@H](NC(=O)[C@@H](N)CC(C)C)C(=O)N[C@H](C(=O)N1CCC[C@H]1C(=O)N[C@H](C(N)=O)C(C)C)[C@@H](C)O (H-LLTPV-NH2) | > 500 |
| CC(C)C[C@@H]1NC(=O)[C@@H](NC(=O)[C@@H](N)Cc2ccc(O)cc2)CCCCCCC[C@@H](C(=O)N(C)C)NC(=O)[C@@H]2CCCN2C(=O)[C@H](C)NC1=O | 58.2 |
| CC(C)C[C@@H]1NC(=O)[C@@H](NC(=O)[C@@H](N)Cc2ccccc2)CCCCCCCC[C@@H](C(=O)N(C)C)NC(=O)[C@@H]2CCCN2C(=O)[C@H](C)NC1=O | 43.2 |
| CC(C)C[C@H](NC(=O)[C@H](Cc1ccc(O)cc1)NC(=O)[C@@H](N)CCCCN)C(=O)N[C@@H](CC(C)C)C(=O)N[C@H](C(=O)N1CCC[C@H]1C(=O)N[C@H](C(=O)O)C(C)C)[C@@H](C)O (H-KYLLTPV-OH) | 123 |
| CC(C)C[C@H](NC(=O)[C@H](Cc1ccc(O)cc1)NC(=O)[C@H](CCCCN)NC(=O)[C@@H](N)CC(C)C)C(=O)N[C@@H](CC(C)C)C(=O)N[C@H](C(=O)N1CCC[C@H]1C(=O)N[C@H](C(=O)O)C(C)C)[C@@H](C)O (H-LKYLLTPV-OH) | 26.8 |

Compounds with a lower Ki, results first:

| Ki [µM] | Compound |
| --- | --- |
| 18.4 | CC(C)C[C@@H]1NC(=O)[C@@H](NC(=O)[C@H](Cc2ccc(O)cc2)NC(=O)[C@@H](N)CCCCN)CCCCCCC[C@@H](C(=O)N(C)C)NC(=O)[C@@H]2CCCN2C(=O)[C@H](C)NC1=O |
| 14.3 | CC(C)C[C@@H]1NC(=O)[C@@H](NC(=O)[C@H](Cc2ccccc2)NC(=O)C[C@@H](N)Cc2ccccc2)CCCCCCC[C@@H](C(=O)N(C)C)NC(=O)[C@@H]2CCCN2C(=O)[C@H](C)NC1=O |
| 6.1 | CC(=O)N[C@@H](CC(C)C)C(=O)N[C@@H](C)C(=O)N[C@@H](CC(C)C)C(=O)N[C@@H](CCCCN)C(=O)N[C@@H](Cc1ccc(O)cc1)C(=O)N[C@@H](CC(C)C)C(=O)N[C@@H](CC(C)(C)C)C(=O)N[C@H](C(=O)N1CCC[C@H]1C(=O)N[C@H](C(N)=O)C(C)C)[C@@H](C)O (Ac-LALKYL[tBuAla]TPV-NH2) |
| 0.51 | CC(=O)N[C@@H](CC(C)C)C(=O)N[C@@H](C)C(=O)N[C@@H](CC(C)C)C(=O)N[C@@H](CCCCN)C(=O)N[C@@H](Cc1ccc(O)cc1)C(=O)N[C@@H](CC(C)C)C(=O)N[C@H](C(=O)N[C@H](C(=O)N1CCC[C@H]1C(=O)N[C@H](C(N)=O)C(C)C)[C@@H](C)O)C1CCCC1 (Ac-LALKYL[Gly(cPent)]TPV-NH2) |
| 0.24 | CC(=O)N[C@@H](CC(C)C)C(=O)N[C@@H](C)C(=O)N[C@@H](CC(C)C)C(=O)N[C@@H](CCCCN)C(=O)N[C@@H](Cc1ccc(O)cc1)C(=O)N[C@@H](CC(C)C)C(=O)N[C@@H](CC(C)C)C(=O)N[C@@H](C)C(=O)N1CCC[C@H]1C(=O)N[C@H](C(N)=O)C(C)C (Ac-LALKYLLAPV-NH2) |
